Measured values: patent US20240368181A1, “QUINOXALINE DERIVATIVES AND USES THEREOF” (Black Diamond Therapeutics, Inc., priority 2021, published 2024)

Columns and labels:
Format in all cases: cell-based
[1] = system: DMS-114 (FGFR1 overexpression) cells; assay: cell proliferation assay (CellTiterGlo), DMS-114 cells; conditions: Homo sapiens, DMS-114, 72 h
Outline: (§1)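 Cells were suspended, dispensed into plates and incubated with vehicle (DMSO) or test compound at varying concentrations. Growth inhibition was measured by luminescent quantification of intracellular ATP (CellTiterGlo). IC50 values came from growth normalized to vehicle-treated cells taken as viable.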

[2] = system: SNU-16 (FGFR2-amplification) cells; assay: cell proliferation assay (CellTiterGlo), SNU-16 cells; conditions: Homo sapiens, 72 hours
Outline: as §1

[3] = system: RT-112 (FGFR3-Tacc3 fusion) cells; assay: cell proliferation assay (CellTiterGlo), RT-112 cells; conditions: Homo sapiens, RT-112, RT112 cells, 72 hours
Outline: as §1

[4] = system: UM-UC-14 (FGFR3-S249C) cells; assay: cell proliferation assay (CellTiterGlo), UM-UC-14 cells; conditions: UMUC14, 72 h
Outline: as §1

IC50 [2] [µM] | SMILES | IC50 [1] [µM] | IC50 [3] [µM] | IC50 [4] [µM]
0.1 to 0.4 | Cc1nc2ccc(Oc3ccc4ncc(-c5cnn(C6CN(c7cncc(F)c7)C6)c5)nc4c3Cl)cc2[nH]1 [Compound 196] | ≥ 0.4 | 0.1 to 0.4 | 0.1 to 0.4
0.1 to 0.4 | Cc1nc2ccc(Oc3ccc4ncc(-c5cnn(C6CN(C(F)(F)F)C6)c5)nc4c3Cl)cc2[nH]1 [Compound 200] | ≥ 0.4 | 0.1 to 0.4 | 0.1 to 0.4
0.02 to 0.1 | COC1CN([C@H]2C[C@H](n3cc(-c4cnc5ccc(Oc6ccc7nc(C)[nH]c7c6)c(Cl)c5n4)cn3)C2)C1 [Compound 202] | ≥ 0.4 | 0.02 to 0.1 | 0.02 to 0.1
0.02 to 0.1 | Cc1nc2ccc(Oc3ccc4ncc(-c5cnn([C@H]6C[C@H](N7C[C@@H]8C[C@H]7CO8)C6)c5)nc4c3Cl)cc2[nH]1 [Compound 203] | ≥ 0.4 | 0.02 to 0.1 | 0.02 to 0.1
0.02 to 0.1 | Cc1nc2ccc(Oc3ccc4ncc(-c5cnn([C@H]6C[C@@H](N7C[C@@H]8C[C@H]7CO8)C6)c5)nc4c3Cl)cc2[nH]1 [Compound 204] | ≥ 0.4 | 0.02 to 0.1 | 0.02 to 0.1
0.02 to 0.1 | Cc1nc2ccc(Oc3ccc4ncc(-c5cnn([C@H]6C[C@@H](N7C[C@H]8C[C@@H]7CO8)C6)c5)nc4c3Cl)cc2[nH]1 [Compound 207] | 0.1 to 0.4 | 0.02 to 0.1 | 0.02 to 0.1
0.1 to 0.4 | Cc1nc2ccc(Oc3ccc4ncc(-c5cnn(CC(=O)NCC(C)(C)NC=O)c5)nc4c3Cl)cc2[nH]1 [Compound 208] | ≥ 0.4 | 0.1 to 0.4 | ≥ 0.4
0.1 to 0.4 | Cc1nc2ccc(Oc3ccc4ncc(-c5cnn(C(C)(C)C(=O)N6CCOCC6)c5)nc4c3Cl)cc2[nH]1 [Compound 209] | ≥ 0.4 | 0.02 to 0.1 | 0.1 to 0.4
0.1 to 0.4 | Cc1nc2ccc(Oc3ccc4ncc(-c5cnn(C6CCC(F)(F)C6)c5)nc4c3Cl)cc2[nH]1 (stereo not shown) [Compound 211] | ≥ 0.4 | 0.1 to 0.4 | 0.1 to 0.4
0.02 to 0.1 | Cc1nc2ccc(Oc3ccc4ncc(-c5cnn([C@H]6C[C@@H](N7CC(O)C7)C6)c5)nc4c3Cl)cc2[nH]1 [Compound 213] | 0.1 to 0.4 | 0.02 to 0.1 | 0.02 to 0.1
0.02 to 0.1 | Cc1nc2ccc(Oc3ccc4ncc(-c5cnn(CCN6CCCC6=O)c5)nc4c3Cl)cc2[nH]1 [Compound 215] | ≥ 0.4 | 0.02 to 0.1 | 0.02 to 0.1
0.02 to 0.1 | Cc1nc2ccc(Oc3ccc4ncc(-c5cnn(C6CN(CC7COC7)C6)c5)nc4c3Cl)cc2[nH]1 [Compound 217] | ≥ 0.4 | 0.02 to 0.1 | 0.02 to 0.1
0.02 to 0.1 | Cc1nc2ccc(Oc3ccc4ncc(-c5cnn(C6CC7(C6)CN(C6COC6)C7)c5)nc4c3Cl)cc2[nH]1 [Compound 218] | 0.1 to 0.4 | 0.02 to 0.1 | 0.02 to 0.1
0.02 to 0.1 | Cc1nc2ccc(Oc3ccc4ncc(-c5cnn(C6CN(CC7(F)CC7)C6)c5)nc4c3Cl)cc2[nH]1 [Compound 220] | ≥ 0.4 | 0.02 to 0.1 | 0.02 to 0.1
≥ 0.4 | Cc1nc2ccc(Oc3ccc4ncc(-c5cnn(C(OCc6ccccc6)C6CC6)c5)nc4c3Cl)cc2[nH]1 (stereo not shown) [Compound 222] | ≥ 0.4 | ≥ 0.4 | ≥ 0.4
≥ 0.4 | FC1(F)CC(Cn2cc(-c3cnc4ccc(Oc5ccc6[nH]c(C(F)(F)F)nc6c5)c(Cl)c4n3)cn2)C1 [Compound 224] | ≥ 0.4 | ≥ 0.4 | ≥ 0.4
0.1 to 0.4 | Cc1nc2ccc(Oc3ccc4ncc(-c5cnn(C6CN(CC(=O)N7CC(F)(F)C7)C6)c5)nc4c3Cl)cc2[nH]1 [Compound 226] | ≥ 0.4 | 0.02 to 0.1 | 0.02 to 0.1
0.02 to 0.1 | Cc1nc2ccc(Oc3ccc4ncc(-c5cnn(C6CN(C)C6)c5)nc4c3Cl)cc2[nH]1 [Compound 227] | ≥ 0.4 | 0.02 to 0.1 | 0.02 to 0.1
0.02 to 0.1 | Cc1nc2ccc(Oc3ccc4ncc(-c5cnn(CC6CS(=O)(=O)C6)c5)nc4c3Cl)cc2[nH]1 [Compound 228] | ≥ 0.4 | 0.02 to 0.1 | 0.02 to 0.1
0.02 to 0.1 | Cc1nc2c(F)c(Oc3ccc4ncc(-c5cnn(CC6CC(F)(F)C6)c5)nc4c3Cl)ccc2[nH]1 [Compound 229] | ≥ 0.4 | 0.02 to 0.1 | 0.02 to 0.1
0.02 to 0.1 | Cc1nc2ccc(Oc3ccc4ncc(-c5cnn(C6CN(C7CN(C)C7)C6)c5)nc4c3Cl)cc2[nH]1 [Compound 230] | ≥ 0.4 | 0.02 to 0.1 | 0.02 to 0.1
0.02 to 0.1 | CC(=O)/C=C/N1CC[C@H](n2cc(-c3cnc4ccc(Oc5ccc6nc(C)[nH]c6c5)c(Cl)c4n3)cn2)[C@@H](F)C1 [Compound 233] | ≥ 0.4 | 0.02 to 0.1 | 0.02 to 0.1
0.02 to 0.1 | Cc1nc2ccc(Oc3ccc4ncc(-c5cnn(CCN6C[C@H]7C[C@@H]6CO7)c5)nc4c3Cl)cc2[nH]1 [Compound 234] | ≥ 0.4 | 0.02 to 0.1 | 0.02 to 0.1
0.02 to 0.1 | Cc1nc2ccc(Oc3ccc4ncc(-c5cnn(C6CN(CC(=O)N7CC(O)C7)C6)c5)nc4c3Cl)cc2[nH]1 [Compound 235] | ≥ 0.4 | 0.02 to 0.1 | 0.02 to 0.1
0.02 to 0.1 | Cc1nc2ccc(Oc3ccc4ncc(-c5cnn(C6CN(C7COC7)C6)c5)nc4c3Cl)cc2[nH]1 [Compound 237] | 0.1 to 0.4 | < 0.02 | 0.02 to 0.1

More lines, now with the values behind:

SMILES | IC50 [2] [µM] | IC50 [1] [µM] | IC50 [3] [µM] | IC50 [4] [µM]
Cc1nc2ccc(Oc3ccc4ncc(-c5cnn(C6CCN(c7cncc(F)c7)CC6)c5)nc4c3Cl)cc2[nH]1 [Compound 197] | 0.1 to 0.4 | ≥ 0.4 | 0.02 to 0.1 | 0.1 to 0.4
Cc1nc2ccc(Oc3ccc4ncc(-c5cnn(CCN6CC(O)C6)c5)nc4c3Cl)cc2[nH]1 [Compound 198] | 0.1 to 0.4 | ≥ 0.4 | 0.02 to 0.1 | 0.1 to 0.4
C=C(F)/C=C/n1cc(-c2cnc3ccc(Oc4ccc5nc(C)[nH]c5c4)c(Cl)c3n2)cn1 [Compound 199] | 0.1 to 0.4 | ≥ 0.4 | 0.1 to 0.4 | 0.1 to 0.4
COC1CN([C@H]2C[C@@H](n3cc(-c4cnc5ccc(Oc6ccc7nc(C)[nH]c7c6)c(Cl)c5n4)cn3)C2)C1 [Compound 201] | 0.02 to 0.1 | ≥ 0.4 | 0.02 to 0.1 | 0.02 to 0.1
Cc1nc2ccc(Oc3ccc4ncc(-c5cnn(C6CC(F)(F)C6)c5)nc4c3Cl)cc2[nH]1 [Compound 205] | 0.1 to 0.4 | ≥ 0.4 | 0.1 to 0.4 | 0.1 to 0.4
Cc1nc2ccc(Oc3ccc4ncc(-c5cnn([C@H]6C[C@H](N7C[C@H]8C[C@@H]7CO8)C6)c5)nc4c3Cl)cc2[nH]1 [Compound 206] | 0.02 to 0.1 | 0.1 to 0.4 | 0.02 to 0.1 | 0.02 to 0.1
Cc1nc2ccc(Oc3ccc4ncc(-c5cnn(C(C)(C)C(=O)N6CC[C@@H](F)C6)c5)nc4c3Cl)cc2[nH]1 [Compound 210] | 0.1 to 0.4 | ≥ 0.4 | 0.02 to 0.1 | 0.1 to 0.4
Cc1nc2ccc(Oc3ccc4ncc(-c5cnn([C@H]6CCN(C7COC7)C[C@@H]6F)c5)nc4c3C)cc2[nH]1 [Compound 212] | 0.02 to 0.1 | 0.1 to 0.4 | 0.02 to 0.1 | 0.02 to 0.1
Cc1nc2ccc(Oc3ccc4ncc(-c5cnn([C@H]6C[C@H](N7CC(O)C7)C6)c5)nc4c3Cl)cc2[nH]1 [Compound 214] | 0.02 to 0.1 | 0.1 to 0.4 | 0.02 to 0.1 | 0.02 to 0.1
Cc1nc2ccc(Oc3ccc4ncc(-c5cnn(CC6CC(F)(F)C6)c5)nc4c3C3CC3)cc2[nH]1 [Compound 216] | 0.1 to 0.4 | ≥ 0.4 | 0.1 to 0.4 | 0.1 to 0.4
CCc1nc2cc(Oc3ccc4ncc(-c5cnn(CC6CC(F)(F)C6)c5)nc4c3Cl)ccc2[nH]1 [Compound 219] | 0.1 to 0.4 | ≥ 0.4 | 0.1 to 0.4 | 0.1 to 0.4
Cc1nc2ccc(Oc3ccc4ncc(-c5cnn(C6CN(CC(F)F)C6)c5)nc4c3Cl)cc2[nH]1 [Compound 221] | 0.02 to 0.1 | ≥ 0.4 | 0.02 to 0.1 | 0.02 to 0.1
Cc1nc2ccc(Oc3ccc4ncc(-c5cnn(C6C7CCC6CNC7)c5)nc4c3Cl)cc2[nH]1 (stereo not shown) [Compound 223] | 0.02 to 0.1 | 0.1 to 0.4 | 0.02 to 0.1 | 0.02 to 0.1
Cc1nc2ccc(Oc3ccc4ncc(-c5cnn(CCN6C[C@@H]7C[C@H]6CO7)c5)nc4c3Cl)cc2[nH]1 [Compound 225] | 0.02 to 0.1 | ≥ 0.4 | 0.02 to 0.1 | 0.02 to 0.1
C=C(C)c1c(Oc2ccc3nc(C)[nH]c3c2)ccc2ncc(-c3cnn(CC4CC(F)(F)C4)c3)nc12 [Compound 231] | 0.02 to 0.1 | ≥ 0.4 | 0.02 to 0.1 | 0.02 to 0.1
Cc1nc2ccc(Oc3ccc4ncc(-c5cnn(C6CCN(C(=O)N7CCC7)CC6)c5)nc4c3Cl)cc2[nH]1 [Compound 232] | 0.02 to 0.1 | ≥ 0.4 | 0.02 to 0.1 | 0.02 to 0.1
Cc1nc2ccc(Oc3ccc4ncc(-c5cnn(C6CN(CC(=O)N7CCC7)C6)c5)nc4c3Cl)cc2[nH]1 [Compound 236] | 0.02 to 0.1 | ≥ 0.4 | 0.02 to 0.1 | 0.02 to 0.1
Cc1nc2ccc(Oc3ccc4ncc(-c5cnn(C6CN(C7CCOCC7)C6)c5)nc4c3Cl)cc2[nH]1 [Compound 238] | 0.02 to 0.1 | 0.1 to 0.4 | 0.02 to 0.1 | 0.02 to 0.1
